{"source": "patent US10143666B2", "about": "“Small molecule inhibitors targeting CAG-repeat RNA toxicity in polyglutamine diseases” (The Chinese University of Hong Kong, priority 2015, dated 2018)", "key": {"α-synuclein fly": {"test_system": "α-synuclein fly", "test": "Neurodegeneration in α-synuclein fly (Parkinson's disease model)", "assay_type": "in vivo, Drosophila", "experimental": "Other disease fly models, including α-synuclein (Parkinson's disease)^13, CTG480 (Myotonic dystrophy 1)^14 and CGG90 (Fragile X syndrome)^15 were employed to address the specificity of DB213 on trinucleotide repeat expansion RNA toxicity.\nFlies were raised at 21.5° C. on cornmeal medium supplemented with dry yeast. Pseudopupil assay was performed on 12 day-old adult flies as mentioned previously^18. Images were captured by SPOT Insight CCD camera controlled by the SPOT Advanced software (Diagnostic instruments Inc.). External eye assay was performed on 12 day-old adult flies by Olympus SZX-12 stereomicroscope. Eye images were captured using a SPOT Insight CCD camera (Diagnostic instruments Inc.)."}, "[1]": {"test_system": "EGFPCAG78 RNA expressing SK-N-MC cells", "test": "LDH cytotoxicity assay, EGFPCAG78 RNA expressing SK-N-MC cells", "assay_type": "cell-based, human", "experimental": "It was next investigated whether DB213 could mitigate expanded CAG-repeat RNA-mediated toxicity in SK-N-MC human neuronal cell. […] Taken together, DB213 could suppress the expanded CAG RNA-mediated but not polyQ protein-mediate toxicity in human neuronal cell.\nSK-N-MC human neuronal cells were seeded on a 24-well plate and lactate dehydrogenase enzyme activity in the cell culture medium was measured 72 hours post-transfection and drugs treatment using the Cytotox 96 non-radioactive cytotoxicity assay (Promega)."}, "r(CAG)7 RNA": {"biological_target": "r(CAG)7 RNA", "test": "Isothermal titration calorimetry (ITC) binding assay", "details": "25° C., DB213 800 μM titrated to r(CAG)7 RNA 40 μM, one binding site model", "experimental": "It was next investigated that whether DB213 would interact physically with CAG-repeat RNA and sequestrate the toxic RNA species from their pathogenic pathway. Isothermal titration calorimetry (ITC)^17 was adopted to identify the RNA-binding property of DB213.\nExperiments were carried out using a MicroCal iTC200 isothermal titration calorimeter (GE Healthcare) at 25° C. Data were analyzed using the Origin® scientific plotting software version 7 (Microcal Software Inc.). DB213 (800 μM) was titrated to synthesized r(CAG)7 RNA (40 μM). The thermal titration data were fitted to the ‘one binding site model’ to determine the dissociation constant (KD)."}, "R6/2 Huntington's mice [2]": {"test_system": "R6/2 Huntington's mice", "test": "Tolerability / mortality in R6/2 Huntington's mice after i.n. or i.v. dosing", "details": "for Mice lost in total: all dose groups; for Highest tolerated dose: R6/2 mice", "experimental": "The objective of this study was to investigate the tolerability of i.n. or i.v. administrated Compound-5 (DB213) treatment on 1) neurological index (NI) scores, 2) body weight, 3) body temperature and 4) activity in open field test in R6/2 Huntington's mice.\ni.n.: Group 1: 3 female and 3 male R6/2 mice treated with i.n. vehicle starting at 6 weeks of age and continuing for 7 days; Group 2: 3 female and 3 male R6/2 mice treated i.n. daily with Compound-5 at 50 mg/kg starting at 6 weeks of age and continuing for 7 days; Group 3: 3 female and 3 male R6/2 mice treated i.n. daily with Compound-5 at 100 mg/kg starting at 6 weeks of age and continuing for 7 days; Group 4: 3 female and 3 male R6/2 mice treated i.n. daily with Compound-5 at 200 mg/kg starting at 6 weeks of age and continuing for 7 days; Group 5: 3 female and 3 male R6/2 mice treated i.n. daily with Compound-5 at 300 mg/kg starting at 6 weeks of age and continuing for 7 days.\nCompound-5 or vehicle was administered i.n. daily or i.v. twice-a-week starting at 6 weeks of age for 7 days.\ni.v. administration: mice received 2 weekly i.v. injections into the tail vein. Mice were weighed on each treatment day and the dose adjusted accordingly to 1 ml/kg dose volume. For example, a mouse with a 30 g body weight received an i.v. injection of 30 μl. The whole i.v. injection process took 5-8 min per mouse.\ni.n. administration: using a three fingered scruff, each mouse was restrained twice and held with neck parallel to the table while the compound was administered. The volume was 0.56 ml/kg. For example, a mouse with a 30 g body weight received in total 16.8 μl. During each restraint, 8.4 μl was administered to the left nostril as two 4.2 μl drops, followed by a 15 sec hold, and 8.4 μl was administered to the right nostril as two 4.2 μl drops, followed by a 15 sec hold. Notes were taken on the success of delivery and any lost volume greater than 2 μl were re-administered.\nAnimals were monitored twice-a-day by laboratory personnel (8 am and […]). […] Definitions of acceptable endpoints included: no spontaneous movements and inability to drink or eat in 24-h observation period, massive bleeding, spontaneous inflammation, missing anatomy, swelling or tumors larger than 20 mm, and inability to right itself in 30 sec period."}, "R6/2 Huntington's mice [3]": {"test_system": "R6/2 Huntington's mice", "test": "Open field test in R6/2 mice", "assay_type": "in vivo", "experimental": "The body weights were measured daily.\nOpen field test was performed at baseline, and on day 7. The mice were brought to the experimental room for at least 1 h acclimation to the experimental room conditions prior to testing. Activity chambers (Med Associates Inc, St Albans, Vt.; 27×27×20.3 cm) were equipped with IR beams. Mice were placed in the center of the chamber and their behavior was recorded for 30 min in 5-minute bins. Quantitative analysis was performed on the following five dependent measures: total locomotion, locomotion in the center of the open field, rearing rate in the center, total rearing frequency and velocity. Animals were tested at low-stress conditions where the light was lowered to approximately 10-30 lux of red light."}, "CUG-repeat RNA": {"test_system": "CUG-repeat RNA", "details": "reported previously; cited from earlier work"}, "[4]": {"details": "i.v. 200 mg/kg group (so in the source)"}, "[5]": {"details": "i.v. 300 mg/kg group (so in the source)"}}}
{"smiles": "CN(C)CCCNC(=N)c1ccc(C(=N)NCCCN(C)C)cc1.Cl.Cl.Cl.Cl", "note": "[DB213]", "values": [{"measurement": "Suppression of neurodegeneration", "setting": "α-synuclein fly", "result": "did not suppress the neurodegeneration"}, {"measurement": "Cell death induced by EGFPCAG78 RNA (LDH assay)", "setting": "[1]; 72 hours post-transfection and treatment", "result": "could be suppressed"}, {"measurement": "IC50", "setting": "[1]; read-out: IC50, inhibition of cell death induced by EGFPCAG78 RNA (LDH enzyme activity reduced by 50%)", "result": "6.9 ± 1.8", "unit": "nM"}, {"measurement": "Kd", "setting": "r(CAG)7 RNA", "result": "1530 ± 250", "unit": "nM"}, {"measurement": "Mortality", "setting": "R6/2 Huntington's mice [2]; both intranasal and intravenous treatment", "result": "increase mortality in dose-dependent manner"}, {"measurement": "Mice lost", "setting": "R6/2 Huntington's mice [2]; i.n. daily 50 mg/kg, 7 days", "result": 1, "unit": "mouse"}, {"measurement": "Mice lost, share of group", "setting": "R6/2 Huntington's mice [2]; i.n. daily 50 mg/kg, 7 days", "result": 16.7, "unit": "%"}, {"measurement": "Mice lost", "setting": "R6/2 Huntington's mice [2]; i.n. daily 100 mg/kg, 7 days", "result": 2, "unit": "mice"}, {"measurement": "Mice lost, share of group", "setting": "R6/2 Huntington's mice [2]; i.n. daily 100 mg/kg, 7 days", "result": 33.3, "unit": "%"}, {"measurement": "Mice lost", "setting": "R6/2 Huntington's mice [2]; i.n. daily 200 mg/kg, 7 days", "result": 4, "unit": "mice"}, {"measurement": "Mice lost, share of group", "setting": "R6/2 Huntington's mice [2]; i.n. daily 200 mg/kg, 7 days", "result": 66.7, "unit": "%"}, {"measurement": "Mice lost", "setting": "R6/2 Huntington's mice [2]; i.n. daily 300 mg/kg, 7 days", "result": 3, "unit": "mice"}, {"measurement": "Mice lost, share of group", "setting": "R6/2 Huntington's mice [2]; i.n. daily 300 mg/kg, 7 days", "result": 50, "unit": "%"}, {"measurement": "Mice lost in total", "setting": "R6/2 Huntington's mice [2]; i.n. daily, 7 days", "result": 10, "unit": "mice"}, {"measurement": "Mice lost", "setting": "R6/2 Huntington's mice [2]; [4]", "result": 2, "unit": "mice"}, {"measurement": "Mice lost, share of group", "setting": "R6/2 Huntington's mice [2]; [4]", "result": 100, "unit": "%"}, {"measurement": "Mice lost", "setting": "R6/2 Huntington's mice [2]; [5]", "result": 2, "unit": "mice"}, {"measurement": "Mice lost, share of group", "setting": "R6/2 Huntington's mice [2]; [5]", "result": 100, "unit": "%"}, {"measurement": "Mice lost", "setting": "R6/2 Huntington's mice [2]; i.v. twice-a-week 25 mg/kg", "result": 1, "unit": "mouse"}, {"measurement": "Mice lost, share of group", "setting": "R6/2 Huntington's mice [2]; i.v. twice-a-week 25 mg/kg", "result": 12.5, "unit": "%"}, {"measurement": "Mice lost", "setting": "R6/2 Huntington's mice [2]; i.v. twice-a-week 50 mg/kg", "result": 3, "unit": "mice"}, {"measurement": "Mice lost, share of group", "setting": "R6/2 Huntington's mice [2]; i.v. twice-a-week 50 mg/kg", "result": 75, "unit": "%"}, {"measurement": "Mice lost in total", "setting": "R6/2 Huntington's mice [2]; i.v. twice-a-week", "result": 8, "unit": "mice"}, {"measurement": "Highest tolerated dose", "setting": "R6/2 Huntington's mice [2]; intranasally", "result": "50 to 100", "unit": "mg/kg"}, {"measurement": "Highest tolerated dose", "setting": "R6/2 Huntington's mice [2]; intravenously", "result": "12.5 to 25", "unit": "mg/kg"}, {"measurement": "Movement activity in open field test", "setting": "R6/2 Huntington's mice [3]; day 7 post-dosing", "result": "no effect on movement activity"}, {"measurement": "Open field distance, rearings, distance in center, rearings in center or velocity, differences between treatment groups", "setting": "R6/2 Huntington's mice [3]; i.n. dosing, day 7", "result": "no differences"}, {"measurement": "Open field distance, rearings, distance in center, rearings in center or velocity, differences between treatment groups", "setting": "R6/2 Huntington's mice [3]; i.v. dosing, baseline or day 7", "result": "no differences"}, {"measurement": "Binding to CUG repeats / CUG-repeat RNA", "setting": "CUG-repeat RNA", "result": "did not bind to CUG repeats"}]}
